Molecular target: Kappa-type opioid receptor (Homo sapiens, UniProt P41145)
Assay: Inhibition of human kappa opioid receptor assessed as inhibition constant

Chain of Kappa-type opioid receptor (P41145 whole entry): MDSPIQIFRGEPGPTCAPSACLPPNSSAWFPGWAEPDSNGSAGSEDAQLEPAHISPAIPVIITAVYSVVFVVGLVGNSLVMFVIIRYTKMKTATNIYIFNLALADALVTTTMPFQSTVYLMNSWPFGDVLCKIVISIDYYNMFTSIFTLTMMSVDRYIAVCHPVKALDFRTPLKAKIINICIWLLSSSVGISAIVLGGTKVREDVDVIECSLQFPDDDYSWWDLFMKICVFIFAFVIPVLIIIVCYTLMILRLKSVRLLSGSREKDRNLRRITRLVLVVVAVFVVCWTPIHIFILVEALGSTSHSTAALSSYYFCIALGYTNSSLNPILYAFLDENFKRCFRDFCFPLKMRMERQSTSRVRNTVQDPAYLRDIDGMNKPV

Work on `COC(=O)[C@@H]1C[C@H](OC(C)=O)C(=O)[C@H]2[C@@]1(C)CC[C@H]1C(=O)O[C@H](C(=O)Nc3ccccc3)C[C@]21C` yielded a Ki of 1000 nM.

Source: ChEMBL document CHEMBL5252547, “A review of salvinorin analogs and their kappa-opioid receptor activity” (Bioorg Med Chem Lett, 2018)
